Results on two compounds are retold here after patent publication US4180436A, “Antibacterial compounds and process for production thereof” (Kyowa Hakko Kogyo Co., Ltd., priority 1977, dated 1979).

Data set [1] has as its system Klebsiella pneumoniae ATCC 10031. The experiment in a line: antibacterial activity by agar dilution method. Format: cell-based. Conditions: ATCC10031, pH 7.0. From the text:
(§1) The antibacterial activity of the compound S551-II-A against various microorganism by agar dilution method (pH 7.0) is shown in Table 2.
A general note: In agar dilution the substance is mixed into plates at graded concentrations.

Data set [2] concerns Proteus vulgaris ATCC 6897. The experiment in a line: antibacterial activity by agar dilution method. Conditions: ATCC6897, pH 7.0. Format: cell-based.
From the text: as §1

The test system of data set [3] is Escherichia coli ATCC 3655. Kind of data set: antibacterial activity by agar dilution method. In kind it is cell-based. Conditions: ATCC3655, pH 7.0.
From the text: as §1

In data set [4] the test system is Bacilus subtilis ATCC 10707. Kind of data set: antibacterial activity by agar dilution method. Conditions: pH 7.0. In kind it is cell-based.
From the text: as §1

Data set [5] has as its system Staphylococcus aureus ATCC 6538P. The experiment in a line: antibacterial activity by agar dilution method. Conditions: ATCC6538P, pH 7.0. In kind it is cell-based.
From the text: as §1

A short description of data set [6]: Solubilities. In kind it is physicochemical. Conditions: solvents named in the value.
Data set [7] relates to Aspergillus niger ATCC 6275. The experiment in a line: antibacterial activity by disc method. Format: cell-based. Conditions: ATCC6275, pH: no adjustment. The source says: (§2) The antibacterial activity of the compound S551-II against various microorganisms by disc method (pH: no adjustment) is shown in the following Table 1.
The subject of data set [8] is Proteus vulgaris HX19 IAM 1025. The experiment in a line: antibacterial activity by disc method. In kind it is cell-based. Conditions: IAM1025, pH: no adjustment.
From the text: as §2

Data set [9] has as its system Alternaria solani IFO 5924. The experiment in a line: antibacterial activity by disc method. Conditions: IFO5924, pH: no adjustment. Format: cell-based.
From the text: as §2

Data set [10] relates to Myrothecium verrucaria IAM 5063. Kind of data set: antibacterial activity by disc method. Format: cell-based. Conditions: Albifimbria verrucaria, IAM5063, pH: no adjustment.
From the text: as §2

For data set [11], the system named is gypseum IFO 5948. The experiment in a line: antibacterial activity by disc method. Conditions: pH: no adjustment. Format: cell-based.
From the text: as §2

Data set [12] concerns Chaetomium globosum ATCC 6025. The experiment in a line: antibacterial activity by disc method. In kind it is cell-based. Conditions: ATCC6025, pH: no adjustment.
From the text: as §2

The subject of data set [13] is Shigella sonnei E23. The experiment in a line: antibacterial activity by disc method. In kind it is cell-based.
From the text: as §2

The test system of data set [14] is Dusariium moniliforme IAM 5062. Kind of data set: antibacterial activity by disc method. In kind it is cell-based. Conditions: pH: no adjustment.
From the text: as §2

Data set [15] deals with Candida albicans IAM 4888. The experiment in a line: antibacterial activity by disc method. Format: cell-based. Conditions: IAM4888, pH: no adjustment.
From the text: as §2

The subject of data set [16] is Pseudomonas fluorescens ATCC 27. Kind of data set: antibacterial activity by disc method. Format: cell-based. Conditions: ATCC27, pH: no adjustment.
From the text: as §2

Data set [17] concerns Aspergillus oryzae NRRL 692. Kind of data set: antibacterial activity by disc method. In kind it is cell-based. Conditions: NRRL692, pH: no adjustment.
From the text: as §2

The subject of data set [18] is Saccharomyces rouxii M-9. The experiment in a line: antibacterial activity by disc method. In kind it is cell-based. Conditions: Zygosaccharomyces rouxii, M9, pH: no adjustment.
From the text: as §2

The subject of data set [19] is Diplococcus pneumoniae. Kind of data set: antibacterial activity by disc method. In kind it is cell-based. Conditions: Streptococcus pneumoniae, pH: no adjustment.
From the text: as §2

In data set [20] the test system is Penicillium chrysogenum IAM 7142. The experiment in a line: antibacterial activity by disc method. Conditions: IAM7142, pH: no adjustment. Format: cell-based.
From the text: as §2

In data set [21] the test system is Sarcina lutea IAM 1099. Kind of data set: antibacterial activity by disc method. Format: cell-based. Conditions: Micrococcus luteus, IAM1099, pH: no adjustment.
From the text: as §2

Data set [22] relates to Escherichia coli ATCC 3655. The experiment in a line: antibacterial activity by disc method. Format: cell-based. Conditions: ATCC3655, pH: no adjustment.
From the text: as §2

Data set [23] deals with Penicillium chrysogenum Q 176. The experiment in a line: antibacterial activity by disc method. Conditions: Q176, pH: no adjustment. In kind it is cell-based.
From the text: as §2

The test system of data set [24] is Irycoderma T-1 ATCC 9645. Kind of data set: antibacterial activity by disc method. In kind it is cell-based.
From the text: as §2

In data set [25] the test system is Bacillus subtilis IAM 1026. Kind of data set: antibacterial activity by disc method. In kind it is cell-based. Conditions: IAM1026, pH: no adjustment.
From the text: as §2

The subject of data set [26] is Cladosporium herbarum Link Fr IAM 5059. Kind of data set: antibacterial activity by disc method. Format: cell-based. Conditions: IAM5059, pH: no adjustment.
From the text: as §2

In data set [27] the test system is Trycophyton mentagrophytes IAM 5064. Kind of data set: antibacterial activity by disc method. Format: cell-based. Conditions: pH: no adjustment.
From the text: as §2

For data set [28], the system named is Staphylococcus aureus FAD 209P. Kind of data set: antibacterial activity by disc method. Format: cell-based. Conditions: pH: no adjustment.
From the text: as §2

Data set [29] deals with Klebsiella pneumoniae 348. Kind of data set: antibacterial activity by disc method. In kind it is cell-based. Conditions: pH: no adjustment.
From the text: as §2

Data set [30] deals with Bacillus subtilis PCI 219. Kind of data set: antibacterial activity by disc method. Format: cell-based. Conditions: PCI219, pH: no adjustment.
From the text: as §2

For data set [31], the system named is Salmonella enteritidis. The experiment in a line: antibacterial activity by disc method. Format: cell-based. Conditions: Salmonella enterica, pH: no adjustment.
From the text: as §2

In data set [32] the test system is Bacillus subtilis NA 64. The experiment in a line: antibacterial activity by disc method. In kind it is cell-based. Conditions: NA64, pH: no adjustment.
From the text: as §2

Data set [33] concerns Escherichia coli IAM 1268. The experiment in a line: antibacterial activity by disc method. Format: cell-based. Conditions: IAM1268, pH: no adjustment.
From the text: as §2

The subject of data set [34] is Saccharomyces cerevisiae IAM 4485. Kind of data set: antibacterial activity by disc method. Format: cell-based. Conditions: IAM4485, pH: no adjustment.
From the text: as §2

In data set [35] the test system is Aspergillus niger IAM 2026. The experiment in a line: antibacterial activity by disc method. Format: cell-based. Conditions: IAM2026, pH: no adjustment.
From the text: as §2

Data set [36] has as its system Mucor spinescens IAM 6071. The experiment in a line: antibacterial activity by disc method. Conditions: IAM6071, pH: no adjustment. Format: cell-based.
From the text: as §2

The test system of data set [37] is Pseudomonas aeruginosa IAM 1156. Kind of data set: antibacterial activity by disc method. Format: cell-based. Conditions: IAM1156, pH: no adjustment.
From the text: as §2

For data set [38], the system named is Serratia marcescens IAM 1022. Kind of data set: antibacterial activity by disc method. Format: cell-based. Conditions: IAM1022, pH: no adjustment.
From the text: as §2

The structures appear in SMILES notation. ≈ marks a conversion by molar mass, not a printed value. Entries after “also recorded” stand apart in the source; their conditions may differ. Bounds are passed on as bounds.

Turning to `O=C(/C=C/c1cc[nH]c1)OC1=C(O)CCC1=O` [Compound S551-II-A], the MIC (usually the lowest concentration that inhibits growth of the organism) in data set [1] turned out to be 200 µg/mL (≈ 858 µM); in [2], 25 µg/mL (≈ 107 µM); in [3], 500 µg/mL (≈ 2140 µM); in [4], 200 µg/mL (≈ 858 µM); in [5], 200 µg/mL (≈ 858 µM). The Solubilities result in [6] is “soluble in acetone, dimethylsulfoxide and alkaline solution; also recorded: slightly soluble in methanol; also recorded: insoluble in benzene, chloroform ethylether and hexane”.
As for `CC(=O)OC1CC(/C=C/C(=O)OC2=C(O)CCC2=O)=CN1` (centres unmarked) [Compound S551-II], the MIC in data set [7] is 1000 µg/mL (≈ 3410 µM); in data set [8], greater than 1000 µg/mL; in data set [9] it was 8 µg/mL (≈ 27.3 µM); in data set [10] it was 125 µg/mL (≈ 426 µM); in data set [11] it was 125 µg/mL (≈ 426 µM); in [12] it was 500 µg/mL (≈ 1700 µM). In addition, the minimum inhibitory concentration (MIC) in data set [13] is greater than 100 µg/mL; in [14], 125 µg/mL (≈ 426 µM); in [15] it was greater than 1000 µg/mL; in data set [16], greater than 1000 µg/mL; in data set [17], 62.5 µg/mL (≈ 213 µM); in [18], 100 µg/mL (≈ 341 µM). Further, the MIC worked out at 1000 µg/mL (≈ 3410 µM) in data set [19]; 125 µg/mL (≈ 426 µM) in data set [20]; 125 µg/mL (≈ 426 µM) in data set [21]; 500 µg/mL (≈ 1700 µM) in data set [22]; 62.5 µg/mL (≈ 213 µM) in [23]; 16 µg/mL (≈ 54.6 µM) in [24]. Also, the minimal inhibitory concentration (MIC) is 31.2 µg/mL (≈ 106 µM) in [25]; 31.2 µg/mL (≈ 106 µM) in data set [26]; 4 µg/mL (≈ 13.6 µM) in data set [27]; 62.5 µg/mL (≈ 213 µM) in data set [28]; greater than 1000 µg/mL in [29]; 62.5 µg/mL (≈ 213 µM) in data set [30]. Besides, the MIC in data set [31] was greater than 1000 µg/mL; in data set [32], 62.5 µg/mL (≈ 213 µM); in [33], 1000 µg/mL (≈ 3410 µM); in data set [34] it was 1000 µg/mL (≈ 3410 µM); in data set [35] it was 250 µg/mL (≈ 852 µM); in [36], 500 µg/mL (≈ 1700 µM). Besides, the MIC in data set [37] and in [38] was greater than 1000 µg/mL in each case.
